Data on six compounds can be found in patent US4127576A, “Nortropine-carbazate derivatives” (Egyt Gyogyszervegyeszeti Gyar, priority 1976, dated 1978).

Counter-ions that a name gives are not always drawn. Like-named read-outs stand apart in the source and are kept apart here. A value given as a limit tells only on which side of the number the result lay.

In series [1] the test system is mice. In words: hypermotility provoked with amphetamine in mice (light interruption). Format: in vivo, mouse. As for the experimental part: (§1) The effect of 8-phenoxycarbonyl-3-hydrazinocarbonyl-oxy-nortropane exerted on the motilities of mice was tested according to the method of Borsy et al. (Arch. Int. Pharmacodyn. 124, 1- 2/1960/). The compound was administered orally in dosages of 20 to 80 mg/kg.
The above test method was applied also to study how 8-phenoxycarbonyl-3-hydrazinocarbonyloxy-nortropane does influence the hypermotility provoked with amphetamine (2-amino-1-phenyl-propane). Amphetamine was administered subcutaneously to mice in dosages of 7.5 mg/kg.

Series [2] relates to rats. Briefly: hypermotility provoked with amphetamine in rats (method of Janssen). It counts as in vivo, rat. As for the experimental part:
The effect of 8-phenoxycarbonyl-3-hydrazinocarbonyloxy-nortropane exerted on the hypermotility provoked with amphetamine on rats was examined by the method of Janssen (Psychopharmacologia 1, 389- 392/1960/). The stimulation of central nervous system was provoked with subcutaneous dosages of 7.5 mg/kg of amphetamine. The tests were performed on groups each consisting of 10 rats.

Series [3] can be described thus: toxicity test on rats, observation for 7 days. The following applies: rat, in vivo, po. The procedure:
(§2) The toxicities and narcosis potentiating effects of the novel compounds having the general formula (I) were studied on rats weighing 120 to 150 g. In the toxicity tests the animals were kept under observation for 7 days. The narcosis potentiating effect was studied on animals treated with an intravenous dosage of 50 mg/kg of hexabarbital (5-/1-cyclohexenyl/-1',5-dimethylbarbituric acid), and the prolongation of sleeping period was recorded. A 150% prolongated of sleeping period in relation to the controls was regarded as positive response. The number of animals with positive responses was related to the total number of animals treated.

In series [4] the test system is rats. In words: narcosis potentiating effect (prolongation of hexabarbital sleeping period). It counts as in vivo. To be noted: Rattus norvegicus, po, read-out: ED50 (narcosis potentiating effect). As for the experimental part:
as §2

The test system of series [5] is mice. In words: effect on motility of mice (method of Borsy et al.). The following applies: oral, 20 to 80 mg/kg. It counts as in vivo, mouse. As for the experimental part:
as §1

[6] abbreviates: 0.9% saline 20 ml/kg p.o. + amphetamine 7.5 mg/kg s.c.
The mark [7] stands for this setting: 0.9% saline 20 ml/kg s.c. + compound 40 mg/kg p.o., no amphetamine.
Setting [8] is: compound 40 mg/kg p.o. + amphetamine 7.5 mg/kg s.c.

For `CC(N)Cc1ccccc1` (stereo not drawn) [Amphetamine, 2-amino-1-phenyl-propane, reference compound], the “Light interruption (average)” value with mice [1] (amphetamine 7.5 mg/kg s.c. + 5% carboxymethylcellulose solution) is given as 583. In addition, in the series on rats [2] (setting [6]), the “Rearing (average)” value amounted to 28.6, the “Triangle walked in (average)” value amounted to 28.5 and the “Washing (average)” value amounted to 2.7.
A word on the LD50: it is the dose at which mortality reaches 50%. A word on the ED50: it is the dose that gives a 50% effect, or the effect in half of the subjects. On to `CN(C)CCCN1c2ccccc2Sc2ccc(Cl)cc21` [Chloropromazine, 2-chloro-10-/3-dimethylaminopropyl/-phenothiazine, reference compound], for which the LD50 at 168 h in series [3] was determined as 210 mg/kg. Also, the ED50 with rats [4] (rats, hexabarbital 50 mg/kg i.v., 150% prolongation of sleeping period = positive response) stood at 4.7 mg/kg.
Regarding `CCOC(=O)N1[C@@H]2CC[C@H]1C[C@@H](OC(=O)NN)C2` [Example 1, 8-Ethoxycarbonyl-3α-hydrazinocarbonyloxy-nortropane hydrochloride], the LD50 at 168 h in series [3] is more than 2000 mg/kg. In addition, in the series with rats [4], the ED50 was 0.54 mg/kg.
Consider `NNC(=O)O[C@H]1C[C@H]2CC[C@@H](C1)N2C(=O)Oc1ccccc1` [Example 3, 8-Phenoxycarbonyl-3α-hydrazinocarbonyloxy-nortropane], for which the LD50 at 168 h in series [3] worked out at 5000 mg/kg. The 50% effective dose (ED50) in the series on rats [4] was found to be 3 mg/kg. The influence on motility result in the series on mice [5] is listed as “did not influence the motilities”. For the same compound, the “Light interruption (average)” value in the series with mice [1] (amphetamine 7.5 mg/kg s.c. + compound 40 mg/kg p.o.) is given as 270. The “Light interruption (average)” value in the series with mice [1] (amphetamine 7.5 mg/kg s.c. + compound 80 mg/kg p.o.) worked out at 175. In addition, in the series with mice [1] (mice, both dosages examined (40 and 80 mg/kg p.o.)), the “inhibition of locomotor stimulating effect of amphetamine” value is reported as “completely inhibited”. Also, in the series on rats [2] (setting [7]), the “Rearing (average)” value is 11.8, the “Triangle walked in (average)” value was 16.1 and the “Washing (average)” value stood at 3.3. Further, in the series with rats [2] (setting [8]), the “Rearing (average)” value is recorded as 21.5, the “Triangle walked in (average)” value was 14.5 and the “Washing (average)” value came to 0.6.
With `CC(=O)N(NC(=O)OC1CC2CCC(C1)N2C(=O)Oc1ccccc1)C(C)=O` (stereo not drawn) [Example 14, 8-Phenoxycarbonyl-3α-(2',2'-diacetyl-hydrazinocarbonyloxy)-nortropane], in series [3], the LD50 at 168 h was more than 1200 mg/kg. In the series on rats [4], the ED50 worked out at 1 mg/kg.
For `O=C(CCCN1CCC(O)(c2ccc(Cl)cc2)CC1)c1ccc(F)cc1` [Haloperidol, 4-(4-chlorophenyl/-4-hydroxy-piperidyl)-4'-fluoro-butyrophenone, reference compound], in that order: 450 mg/kg and 2.8 mg/kg.
